Experimental data taken from US11603364B2, “Acyl hydrazone derivative compounds for treating disease” (Alterity Therapeutics Limited, priority 2020, dated 2023).

Test system: phospho-GSK-3β
Experiment: GSK 3b assay: Zn ionophore-enhanced phosphorylation of GSK-3β (AlphaScreen SureFire Phospho-GSK 3β (Ser9) kit) in SH-SY5Y cells
Format: cell-based, human
Conditions: test compound 2 μM + ZnCl2 5 μM, 2 h at 37° C.
Description: The phosphorylation of GSK-3β is enhanced when Zn is imported into a cell by a Zn ionophore. This property was measured for the compounds of the current invention and the data presented relative to the know Zn ionophore PBT2 using the following protocol.
The human neuroblastoma SH-SY5Y cells were obtained from Cell bank Australia (Catalogue number: 94030304). SH-SY5Y cell culture was maintained in DMEM/F12+15% FBS inside an incubator at 37° C. in the presence of 5% CO2. The cells were sub-cultured once a week and the media exchanged once during the week. Cells for the assay were plated at a density of 60,000 cells/well.
Stock solutions of the samples were prepared as a 5 mM stock in DMSO and a stock solution of 1 mM ZnCl2/3 mM Glutamic acid was prepared in water. Immediately before use the compounds were diluted 1:10 with water before being added to Locke's buffer in a treatment tube. Samples were subsequently treated with either distilled water or the ZnCl2/Glutamic acid solution to yield a treatment solution which has a final concentration of the test compound at 2 μM+/−ZnCl2 at 5 μM.
The culture media was aspirated from the wells and the media replaced with the treatment solution prepared above. In addition to the relative standard (PBT2+/−ZnCl2), control wells were also included consisting of +/−ZnCl2 at 5 μM with all treatments done in triplicate. The plate was incubated at 37° C. with the treatment solution for 2 h after which time the wells were aspirated and washed with sterile PBS.
Measurement of the change of phospho-GSK-3β was determined using an AlphaScreen® SureFire® Phospho-GSK […] (Ser9) Kit with the cells being processed as per the manufacturer's instructions using an initial incubation of 2 h/24° C. and a final incubation of 16 h/24° C.
The fluorescence was measured on an Enspire plate reader. […] Representative data is presented in Table 12 using the following ranges: A<50%, B 50-<100%, C 100-<150%, D>150%.

| Structure (SMILES) | GSK-Zn (signal as % of the positive standard PBT2+ZnCl2) |
| --- | --- |
| C/C(=N\NC(=O)c1ccccc1O)c1nc2ccccc2s1 [Compound 104] | D (D>150%) |
| COc1ccc(C(=O)N/N=C2/c3ncccc3CCC2(C)C)cc1OC [Compound 26] | A (A<50%) |
| CC/C(=N\NC(=O)c1cccc(C)c1)c1ncccn1 [Compound 44] | B (B 50-<100%) |
| COc1cccc(C(=O)N/N=C(\C)c2ccc3ccccc3n2)c1 [Compound 78] | C (C 100-<150%) |
| C/C(=N\NC(=O)c1cccc(C)c1O)c1ccc2ccccc2n1 [Compound 82] | C (C 100-<150%) |
| C/C(=N\NC(=O)c1ccccc1C)c1cc(C)ccn1 [Compound 74] | B (B 50-<100%) |
| C/C(=N\NC(=O)c1cc(Cl)ccc1O)c1ccc2ccccc2n1 [Compound 92] | C (C 100-<150%) |
| CC/C(=N\NC(=O)c1cccc(C)c1O)c1ncccn1 [Compound 46] | C (C 100-<150%) |
| Cc1cccc(C(=O)N/N=C(/c2ncccn2)C(C)C)c1 [Compound 51] | B (B 50-<100%) |
| C/C(=N\NC(=O)c1cc2ccccc2s1)c1ccccn1 [Compound 146, (E)-N′-(1-(Pyridin-2-yl)ethylidene)benzo[b]thiophene-2-carbohydrazide] | C (C 100-<150%) |
| Cc1cccc(C(=O)NN=C(c2cccc(C)n2)c2cccc(C)n2)c1 [Compound 133] | C (C 100-<150%) |
| Cc1cccc(C(=NNC(=O)c2cc(Cl)ccc2O)c2cccc(C)n2)n1 [Compound 128] | D (D>150%) |
| O=C(N/N=C1\CCCc2cccnc21)c1cccc(Cl)c1 [Compound 16] | A (A<50%) |
| C/C(=N\NC(=O)c1cccc(C)c1O)c1cccc(C)n1 [Compound 65] | B (B 50-<100%) |
| C/C(=N\NC(=O)c1ccccc1Cl)c1cccc(C)n1 [Compound 67] | C (C 100-<150%) |
| O=C(N/N=C1\CCCc2cccnc21)c1cc(Cl)ccc1O [Compound 11] | C (C 100-<150%) |
| C/C(=N\NC(=O)c1snnc1C)c1cc(C)ccn1 [Compound 73] | C (C 100-<150%) |
| C/C(=N\NC(=O)c1ccccc1O)c1nc(C)cs1 [Compound 94] | C (C 100-<150%) |
| O=C(N/N=C1\CCCc2cccnc21)c1cc2ccccc2s1 [Compound 24] | A (A<50%) |
| Cl.O=C(N/N=C1\CCCc2cccnc21)c1ccccc1OCCN1CCCC1 [Compound 41, (E)-N′-(6,7-Dihydroquinolin-8(5H)-ylidene)-2-(2-(pyrrolidin-1-yl)ethoxy)benzohydrazide hydrochloride] | A (A<50%) |
| O=C(N/N=C1\CCCc2cccnc21)c1ccc(C(F)(F)F)cc1 [Compound 20] | A (A<50%) |
| Cc1cccc(C(=O)N/N=C\c2nc(C)c(C)s2)c1 [Compound 106] | A (A<50%) |
| Cc1cccc(C(=O)N/N=C/c2nccs2)c1O [Compound 119] | A (A<50%) |
| C/C(=N\NC(=O)c1cc(Cl)ccc1O)c1nc(C)cs1 [Compound 95] | C (C 100-<150%) |
| Cc1cccc(C(=NNC(=O)c2ccc(N(C)C)cc2)c2cccc(C)n2)n1 [Compound 123] | C (C 100-<150%) |
| C/C(=N\NC(=O)c1snnc1C)c1nc(C)cs1 [Compound 100, (E)-4-Methyl-N′-(1-(4-methylthiazol-2-yl)ethylidene)-1,2,3-thiadiazole-5-carbohydrazide] | C (C 100-<150%) |
| C/C(=N\NC(=O)c1ccccc1O)c1ccc2ccccc2n1 [Compound 76] | C (C 100-<150%) |

| Structure (SMILES) | GSK-Zn (signal as % of the positive standard PBT2+ZnCl2) |
| --- | --- |
| C/C(=N\NC(=O)c1cc2ccccc2s1)c1cccc(C)n1 [Compound 75] | C (C 100-<150%) |
| COc1ccc(C(=O)N/N=C(\C)c2ccc3ccccc3n2)cc1OC [Compound 77] | C (C 100-<150%) |
| CC/C(=N\NC(=O)c1cccc(OC)c1)c1ncccn1 [Compound 45] | C (C 100-<150%) |
| COc1ccc(Cl)cc1C(=O)N/N=C1\CCCc2cccnc21 [Compound 17] | A (A<50%) |
| COc1cc(C(=O)NN=C(c2cccc(C)n2)c2cccc(C)n2)ccc1O [Compound 130, N′-(bis(6-Methylpyridin-2-yl)methylene)-4-hydroxy-3-methoxybenzohydrazide] | A (A<50%) |
| COc1ccc(C(=O)N/N=C2\CCc3cccnc32)cc1OC [Compound 38, (E)-N′-(5H-Cyclopenta[b]pyridin-7(6H)-ylidene)-3,4-dimethoxybenzohydrazide] | A (A<50%) |
| C/C(=N\NC(=O)c1cccc(C)c1O)c1nc2ccccc2s1 [Compound 105] | B (B 50-<100%) |
| Cc1cccc(C(=O)N/N=C\c2cn3ccccc3n2)c1 [Compound 121] | A (A<50%) |
| COc1cccc(C(=O)NN=C(c2cccc(C)n2)c2cccc(C)n2)c1 [Compound 131] | B (B 50-<100%) |
| C/C(=N\NC(=O)c1cc2ccccc2s1)c1cc(C)ccn1 [Compound 72] | C (C 100-<150%) |
| Cc1ccccc1C(=O)N/N=C1\CCCc2cccnc21 [Compound 18] | B (B 50-<100%) |
| Cc1cccc(C(=NNC(=O)c2cccc(C)c2O)c2cccc(C)n2)n1 [Compound 129] | C (C 100-<150%) |
| COc1cc(C(=O)N/N=C2\CCCc3cccnc32)ccc1O [Compound 21] | A (A<50%) |
| Cc1cccc(C(=NNC(=O)c2ccccc2F)c2cccc(C)n2)n1 [Compound 134] | B (B 50-<100%) |
| Cc1cccc(C(=NNC(=O)c2ccccn2)c2cccc(C)n2)n1 [Compound 135] | B (B 50-<100%) |
| COc1ccc(C(=O)NN=C(c2cccc(C)n2)c2cccc(C)n2)cc1OC [Compound 126] | C (C 100-<150%) |
| C/C(=N\NC(=O)c1cccc(C)c1O)c1ccc(C)s1 [Compound 103] | B (B 50-<100%) |
| C/C(=N\NC(=O)c1cccc(C)c1)c1ccc2ccccc2n1 [Compound 81] | C (C 100-<150%) |
| O=C(N/N=C1\CCCc2cccnc21)c1ccccc1O [Compound 12, (E)-N′-(6,7-dihydroquinolin-8(5H)-ylidene)-2-hydroxybenzohydrazide] | B (B 50-<100%) |
| CC/C(=N\NC(=O)c1snnc1C)c1ncccn1 [Compound 43, (E)-4-Methyl-N′-(1-(pyrimidin-2-yl)propylidene)-1,2,3-thiadiazole-5-carbohydrazide] | C (C 100-<150%) |
| O=C(N/N=C/c1nccs1)c1cc(Cl)ccc1O [Compound 109] | B (B 50-<100%) |
| CCOc1cccc(C(=O)NN=C(c2cccc(C)n2)c2cccc(C)n2)c1 [Compound 132] | C (C 100-<150%) |
| COc1cc(C(=O)N/N=C(\C)c2ccc3ccccc3n2)ccc1O [Compound 87] | C (C 100-<150%) |
| O=C(N/N=C1\CCCc2cccnc21)c1cc2c(s1)-c1ccccc1OC2 [Compound 25] | B (B 50-<100%) |
| O=C(N/N=C/c1nc2ccccc2s1)c1cc(Cl)ccc1O [Compound 115] | A (A<50%) |
| COc1cccc(C(=O)N/N=C(\C)c2cccc(C)n2)c1 [Compound 64] | B (B 50-<100%) |
